The assay deals with LPA2 (Homo sapiens, UniProt Q9HBW0). The assay can be described thus: LPA receptor-mediated Ca2+ mobilization assay, LPA2 (RH7777 cells stably expressing LPA2). It is filed as cell-based. On the set-up: expressed in transfected cells. To be noted: for receptor specificity of activation among established and putative LPA GPCRs: up to 10 μM. On the procedure:
Similarity searches were performed separately using each fingerprint to quantitate similarity. Hits meeting the 80% similarity threshold from each search were ranked based on the Tanimoto coefficient measure of similarity to a target molecule NSC12404, and the top 75 unique hits from each fingerprint search were selected for further analysis. […] This selected a diverse subset of 27 compounds for biological evaluation by choosing the middle compounds in each cluster. These 27 compounds were tested in Ca^2+ mobilization assays at a concentration of 10 μM using stable cell lines individually expressing LPA2 and also in vector-transfected control cells. Hits activating LPA2 were further tested using cells expressing the other established and putative LPA GPCRs. […] They arbitrarily selected GRI977143 for further characterization in cell-based assays.
The newly-synthesized compounds were tested for their ability to induce Ca^2+ transients in RH7777 cells stably expressing the LPA2 receptor.
The cells were loaded with Fura-2-acetoxymethyl esther (Fura-2/AM) in Krebs buffer containing 0.01% pluronic acid for 30 min and rinsed with Krebs buffer before measuring Ca^2+ mobilization. The ratio of peak emissions at 510 nm after 2 min of ligand addition was determined for excitation wavelengths of 340 nm/380 nm. All samples were run in quadruplicate. […] The half maximally effective concentration (EC50), and inhibitory constant (Ki) values were calculated by fitting a sigmoid function to dose-response data points using KaleidaGraph software (version 4.1, Synergy Software; […]).
Mouse embryonic fibroblast (MEF) cells were isolated from E13.5 LPA1&2 double knockout (DKO) embryos. MEFs were transduced with empty vector or LPA2-containing lentiviruses and selected with 1.5 μg/ml puromycin. Cells were maintained in Dulbecco's modified Eagle medium (DMEM) supplemented with 10% (V/V) fetal bovine serum (FBS), 2 mM L-glutamine, 100 U/mL penicillin, and 100 μg/mL streptomycin. Serum-free medium contained 0.1% (W/V) BSA in DMEM. The rat intestinal epithelial cell line 6 (IEC-6) was obtained from the American Type Culture Collection (Rockville, Md.) at passage 13; passages 16-21 were used in all experiments. IEC-6 cells were maintained in a humidified 37° C. incubator in an atmosphere of 90% air and 10% CO2. Growth medium consisted of DMEM supplemented with 5% heat inactivated FBS, 10 μg/mL insulin, and 50 μg/mL gentamycin. The composition of the serum-starvation medium was the same as that of the full growth medium except that it contained no FBS. The McArdle rat hepatoma cell line (RH7777) stably expressing LPA2 receptors was a gift from Dr. Fumikazu Okajima (Gunma University, Maebashi, Japan). RH7777 cells stably expressing LPA1 or LPA3 receptors were generated in-house and had been characterized earlier. Wild type and LPA receptor (LPAR) stably transfected RH7777 cells were grown in DMEM supplemented with 10% FBS and 2 mM L-glutamine in the presence of 250 μg/ml G418. Chinese hamster ovary (CHO) cells stably expressing either vector or LPA4 receptor were a kind gift from Dr. Takao Shimizu (Tokyo University; Tokyo, Japan). Cells were cultured in Ham's F12 medium containing 10% FBS, 2 mM L-glutamine, and 350 μg/ml G418. Rat neuroblastoma cells (B103) were transduced with the lentivirus harboring wild type of FLAG-LPA5 and selected with puromycin to establish the stable cell lines. The stable cells were maintained in DMEM supplemented with 10% FBS and 0.4 μg/ml puromycin. GPR87- and P2Y10-expressing CHO cells and vector-transfected control cells were a gift from Dr. Norihisha Fujita (Ritsumeikan University; Shiga, Japan). The highly invasive MM1 rat hepatoma cells (gift from Dr. Michiko Mukai, Osaka University, Japan) were grown in suspension in DMEM supplemented with 10% (V/V) FBS, 2 mM L-glutamine, 100 U/mL penicillin, and 100 μg/mL streptomycin.
A general note: Calcium assays in cells follow changes in intracellular calcium, usually with a dye or a luminescent sensor.

Setting [1] is: agonist, Ca2+ mobilization, read-out: LPA2 EC50.

Five molecules from patent publication US9056835B2, “LPA2 receptor-specific benzoic acid derivatives” (University of Tennessee Research Foundation, priority 2012, dated 2015) can be followed below.

Where two headings read alike, the source gives them in different places.

Chain of LPA2 (Q9HBW0 whole entry): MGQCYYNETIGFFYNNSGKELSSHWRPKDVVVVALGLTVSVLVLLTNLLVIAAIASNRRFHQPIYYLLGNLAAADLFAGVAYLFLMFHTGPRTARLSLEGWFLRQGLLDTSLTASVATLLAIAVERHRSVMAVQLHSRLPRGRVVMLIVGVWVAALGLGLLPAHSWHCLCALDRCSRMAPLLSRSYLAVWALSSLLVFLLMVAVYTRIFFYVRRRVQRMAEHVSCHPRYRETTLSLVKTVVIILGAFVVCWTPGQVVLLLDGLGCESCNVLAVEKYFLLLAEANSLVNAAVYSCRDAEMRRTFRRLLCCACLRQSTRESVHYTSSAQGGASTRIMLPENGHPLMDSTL

Regarding `O=C(O)c1cc(Cl)c(Cl)cc1C(=O)Nc1ccc2c(c1)C(=O)c1ccccc1-2` [Compound H2L5547924], the “receptor specificity of activation among established and putative LPA GPCRs” value (“receptor specificity” for short) is “activated only LPA2”. Further, the 50% effective concentration (EC50) – broadly, the concentration needed to bring the measured effect to its halfway point – under setting [1] turned out to be 2.8 µM.

As for `O=C(O)c1ccccc1C(=O)Nc1ccc2c(c1)C(=O)c1ccccc1C2=O` [Compound H2L5828102], the “receptor specificity” value is “activated only LPA2”. Moreover, the 50% effective concentration (EC50) under setting [1] turned out to be 3.3 µM.

For the molecule `O=C(O)c1ccccc1SCCCN1C(=O)c2cccc3cccc(c23)C1=O` [GRI977143], the “receptor specificity” value is “activated only LPA2”. Also, the Emax (usually the greatest response seen or fitted, relative to the assay's reference) (Ca2+ transients, RH7777 cells stably expressing LPA2) worked out at 64%. In addition, the EC50 (Ca2+ transients, RH7777 cells stably expressing LPA2, read-out: EC50 (μM) (RH7777)) was 3.3 µM. Moreover, the EC50 under setting [1] turned out to be 3.3 µM.

Take `O=C(O)c1ccccc1C(=O)Nc1ccc2c(c1)C(=O)c1ccccc1-2` [NSC12404]: the EC50 under setting [1] was determined as 9.5 µM.

For the molecule octadecenyl thiophosphate [OTP], the EC50 under setting [1] was found to be 0.336 µM.
